Laboratory results from ChEMBL document CHEMBL3885881, “DrugMatrix”.

Species on record: Rattus norvegicus
Assay: DrugMatrix - Regimen: Daily Repeat
Assay type: toxicity, organism-based, Sprague-Dawley
Design: regimen Daily Repeat, gender Male, age 6-8 weeks
Details: in vivo, po, route oral GAVAGE, vehicle 100 % WATER; for URIC ACID / ALANINE AMINOTRANSFERASE / ALKALINE PHOSPHATASE / ASPARTATE AMINOTRANSFERASE / BLOOD UREA NITROGEN / CARBON DIOXIDE / CHLORIDE / CHOLESTEROL / CREATINE PHOSPHOKINASE / CREATININE / GLUCOSE / LACTATE DEHYDROGENASE / LIPASE / PHOSPHORUS / POTASSIUM / SODIUM / TOTAL BILIRUBIN / TOTAL PROTEIN: tissue Plasma; for ABSOLUTE BASOPHIL / ABSOLUTE EOSINOPHIL / ABSOLUTE LYMPHOCYTE / ABSOLUTE MONOCYTE / ABSOLUTE SEGMENTED NEUTROPHIL / BASOPHIL / EOSINOPHIL / ERYTHROCYTE COUNT / HEMATOCRIT / HEMOGLOBIN / LEUKOCYTE COUNT / LYMPHOCYTE / MEAN CORPUSCULAR HEMOGLOBIN / MEAN CORPUSCULAR HEMOGLOBIN CONCENTRATION / MEAN CORPUSCULAR VOLUME / MONOCYTE / NEUTROPHIL / NUCLEATED RED BLOOD CELLS: tissue Blood
[1] = 18 mg/kg, 120 h, dose level Low, time 5 day
[2] = 73 mg/kg, 72 h, dose level High, time 3 day
[3] = 73 mg/kg, 120 h, dose level High, time 5 day

Structure (SMILES): CN(C)CCCN1c2ccccc2Sc2ccc(Cl)cc21 [CHLORPROMAZINE]
- URIC ACID (18 mg/kg, 72 h, dose level Low, time 3 day): 0.4 mg/dL
- ABSOLUTE BASOPHIL [1]: 0 CELLS/uL
- ABSOLUTE EOSINOPHIL [1]: 76 CELLS/uL
- ABSOLUTE LYMPHOCYTE [1]: 7709.67 CELLS/uL
- ABSOLUTE MONOCYTE [1]: 216 CELLS/uL
- ABSOLUTE SEGMENTED NEUTROPHIL [1]: 898.33 CELLS/uL
- BASOPHIL [1]: 0%
- EOSINOPHIL [1]: 0.67%
- ERYTHROCYTE COUNT [1]: 5.62 x10E6/uL
- HEMATOCRIT [1]: 36.23%
- HEMOGLOBIN [1]: 13.87 G/DL
- LEUKOCYTE COUNT [1]: 8.9 x10E3/uL
- LYMPHOCYTE [1]: 87%
- MEAN CORPUSCULAR HEMOGLOBIN [1]: 24.7 pg
- MEAN CORPUSCULAR HEMOGLOBIN CONCENTRATION [1]: 38.27 G/DL
- MEAN CORPUSCULAR VOLUME [1]: 64.5 fL
- MONOCYTE [1]: 2.33%
- NEUTROPHIL [1]: 10%
- NUCLEATED RED BLOOD CELLS [1]: 0 /100WBC
- ALANINE AMINOTRANSFERASE [1]: 54.67 u/L
- ALKALINE PHOSPHATASE [1]: 255.67 u/L
- ASPARTATE AMINOTRANSFERASE [1]: 80.33 u/L
- BLOOD UREA NITROGEN [1]: 14.33 mg/dL
- CARBON DIOXIDE [1]: 29.33 mmol/L
- CHLORIDE [1]: 102.33 MEQ/L
- CHOLESTEROL [1]: 84.67 mg/dL
- CREATINE PHOSPHOKINASE [1]: 218.67 u/L
- CREATININE [1]: 0.12 mg/dL
- GLUCOSE [1]: 141.33 mg/dL
- LACTATE DEHYDROGENASE [1]: 69.67 u/L
- LIPASE [1]: 9 u/L
- PHOSPHORUS [1]: 11.6 mg/dL
- POTASSIUM [1]: 5.95 MEQ/L
- SODIUM [1]: 145.57 MEQ/L
- TOTAL BILIRUBIN [1]: 0.13 mg/dL
- URIC ACID [1]: 0.6 mg/dL
- ABSOLUTE BASOPHIL [2]: 0 CELLS/uL
- ABSOLUTE EOSINOPHIL [2]: 0 CELLS/uL
- ABSOLUTE LYMPHOCYTE [2]: 7383 CELLS/uL
- ABSOLUTE MONOCYTE [2]: 208 CELLS/uL
- ABSOLUTE SEGMENTED NEUTROPHIL [2]: 342.33 CELLS/uL
- BASOPHIL [2]: 0%
- EOSINOPHIL [2]: 0%
- ERYTHROCYTE COUNT [2]: 5.6 x10E6/uL
- HEMATOCRIT [2]: 35.37%
- HEMOGLOBIN [2]: 13.77 G/DL
- LEUKOCYTE COUNT [2]: 7.93 x10E3/uL
- LYMPHOCYTE [2]: 92.33%
- MEAN CORPUSCULAR HEMOGLOBIN [2]: 24.63 pg
- MEAN CORPUSCULAR HEMOGLOBIN CONCENTRATION [2]: 38.93 G/DL
- MEAN CORPUSCULAR VOLUME [2]: 63.17 fL
- MONOCYTE [2]: 3%
- NEUTROPHIL [2]: 4.67%
- NUCLEATED RED BLOOD CELLS [2]: 0 /100WBC
- ALANINE AMINOTRANSFERASE [2]: 56 u/L
- ALKALINE PHOSPHATASE [2]: 291.33 u/L
- ASPARTATE AMINOTRANSFERASE [2]: 84 u/L
- BLOOD UREA NITROGEN [2]: 14.33 mg/dL
- CARBON DIOXIDE [2]: 37.67 mmol/L
- CHLORIDE [2]: 101 MEQ/L
- CHOLESTEROL [2]: 99 mg/dL
- CREATINE PHOSPHOKINASE [2]: 176.33 u/L
- CREATININE [2]: 0.27 mg/dL
- GLUCOSE [2]: 154.67 mg/dL
- LACTATE DEHYDROGENASE [2]: 52.67 u/L
- LIPASE [2]: 12 u/L
- PHOSPHORUS [2]: 8.2 mg/dL
- POTASSIUM [2]: 5.02 MEQ/L
- SODIUM [2]: 145.37 MEQ/L
- TOTAL BILIRUBIN [2]: 0.13 mg/dL
- TOTAL PROTEIN [2]: 5.7 G/DL
- URIC ACID [2]: 0.4 mg/dL
- ABSOLUTE BASOPHIL [3]: 0 CELLS/uL
- ABSOLUTE EOSINOPHIL [3]: 148.67 CELLS/uL
- ABSOLUTE LYMPHOCYTE [3]: 10432 CELLS/uL
- ABSOLUTE MONOCYTE [3]: 268.67 CELLS/uL
- ABSOLUTE SEGMENTED NEUTROPHIL [3]: 584 CELLS/uL
- BASOPHIL [3]: 0%
- EOSINOPHIL [3]: 1.33%
- ERYTHROCYTE COUNT [3]: 6.19 x10E6/uL
- HEMATOCRIT [3]: 38.2%
- HEMOGLOBIN [3]: 14.83 G/DL
- LEUKOCYTE COUNT [3]: 11.43 x10E3/uL
- LYMPHOCYTE [3]: 91%
- MEAN CORPUSCULAR HEMOGLOBIN [3]: 23.93 pg
- MEAN CORPUSCULAR HEMOGLOBIN CONCENTRATION [3]: 38.87 G/DL
- MEAN CORPUSCULAR VOLUME [3]: 61.63 fL
- MONOCYTE [3]: 2.33%
- NEUTROPHIL [3]: 5.33%
- NUCLEATED RED BLOOD CELLS [3]: 0 /100WBC
- ALANINE AMINOTRANSFERASE [3]: 61.67 u/L
- ALKALINE PHOSPHATASE [3]: 321.67 u/L
- ASPARTATE AMINOTRANSFERASE [3]: 110.67 u/L
- BLOOD UREA NITROGEN [3]: 24.67 mg/dL
- CARBON DIOXIDE [3]: 27.67 mmol/L
- CHLORIDE [3]: 103.33 MEQ/L
- CHOLESTEROL [3]: 87.33 mg/dL
- CREATINE PHOSPHOKINASE [3]: 231.67 u/L
- CREATININE [3]: 0.25 mg/dL
- GLUCOSE [3]: 142.33 mg/dL
- LACTATE DEHYDROGENASE [3]: 88.67 u/L
- LIPASE [3]: 10.33 u/L
- PHOSPHORUS [3]: 9.27 mg/dL
- POTASSIUM [3]: 5.11 MEQ/L
- SODIUM [3]: 145.67 MEQ/L
- TOTAL BILIRUBIN [3]: 0.17 mg/dL
- TOTAL PROTEIN [3]: 6.07 G/DL
- URIC ACID [3]: 0.43 mg/dL
